Experimental data: patent US20020028918A1, “Styryl dyes” (KABUSHIKI KAISHA HAYASHIBARA SEIBUTSU KAGAKU KENKYUJO, priority 2000, published 2002)

Key:
[1] = Light resistance of styryl dye thin layer under xenon lamp exposure; assay type: physicochemical; settings: thin layer on glass, 500 W xenon lamp 25 min, transmittance at 600 nm
Method: Light-resistance Improvement of Styryl Dyes
Thereafter, in the usual manner, a prescribed amount of the resulting solution was dropped on either surface of a polished glass substrate, 5 cm×5 cm, while the glass substrate was rotated at a rotation rate of 1,000 rpm for one minute to uniformly coat the solution thereupon, and sequentially blown with hot air and cold air to dry the coated solution.
The resulting glass substrates coated with the styryl dyes were measured for transmittance (T0) at a wavelength of 600 nm, and then exposed with light for 25 min using a 500 W xenon lamp. Immediately after that, the resulting substrates were remeasured for transmittance (T) at a wavelength of 600 nm, and the transmittance of T and T0 dye substrated for the Equation 1 to calculate the residual percentage (%). In parallel, control systems, which 15 (mg) of the conventional compound represented by Chemical Formula 44 was dissolved to TFP with or without two mg of the azo organic metal complex represented by Chemical Formula 38 as a light-resistant improver, were provided and treated similarly as above. [formula]

[2] = Thermal property by DTA and TGA (decomposition point)
From the text: Thermal Property of Cyanine Dye
An adequate amount of any one of the styryl dyes of the present invention in Table 1 as test specimens was placed in a vessel and subjected to conventional differential thermal analysis (hereinafter abbreviated as “DTA”) and thermogravimetric analysis (hereinafter abbreviated as “TGA”) using “MODEL TG/DTA 220”, a digital thermo analyzer commercialized by Seiko Instruments Inc., Tokyo, Japan, to determine their melting points, i.e., temperatures at which the styryl dyes as test specimens begin to absorb heat on TGA, and decomposition points, i.e., temperatures at which the styryl dyes as test specimens begin to lose their weight on DTA. In parallel, the conventional related compound represented by Chemical Formula 44 was analyzed similarly as above. […] In TGA and DTA, the environmental temperature was set to an increasing temperature mode at a rate of 10° C./min.

CN(C)c1ccc(C=CC2=[N+](C)c3ccc(Cl)cc3C2(C)C)cc1.Cc1ccc(S(=O)(=O)[O-])cc1 [Chemical Formula 44]
Residual percentage of dye (%) ([1]; no light-resistant improver added (Formula 26 is itself combined with azo organic metal complex anion)): 3.2% | Residual percentage of dye (%) ([1]; with addition of the azo organic metal complex of Chemical Formula 38): 89.5% | Decomposition point (° C.) ([2]; DTA/TGA, MODEL TG/DTA 220, temperature increasing at 10° C./min): 236.1 °C | Decomposition behaviour around the decomposition point ([2]; TGA/DTA, 10° C./min): very slowly decomposed at around the decomposition point
